These results are taken from ChEMBL document CHEMBL1143157, “New fused benzazepine as selective D3 receptor antagonists. Synthesis and biological evaluation. Part 2: [g]-fused and hetero-fused systems” (Bioorg Med Chem Lett, 2008).

Structures are written as SMILES.

A short description of data set [1]: in vivo. To be noted: rat, whole blood.
Data set [2] in a line: in vivo. To be noted: rat, brain and blood, iv.
Data set [3] is described as follows: in vivo. To be noted: rat.
A short description of data set [4]: in vivo. To be noted: rat, po.
Data set [5] in a line: in vivo. To be noted: rat. The source holds these as a separate data set.

As to `Cc1ccc2c(-c3nnc(SCCCN4CCc5ccc6nc(C(C)(F)F)oc6c5CC4)n3C)cccc2n1`, the clearance (usually the rate of elimination divided by the concentration) in the data set “in vivo [1]” was 43 mL/min/kg. The Kp (as a rule, the ratio of the level in a tissue or fluid to that in plasma or blood) at 1 h in the data set “in vivo [2]” is 4. Besides, the Vd – broadly, the apparent volume that relates the amount in the body to the concentration in plasma or blood – in the data set “in vivo [3]” was determined as 3.31 L/kg. In addition, the bioavailability (usually dose-corrected exposure relative to a reference, in per cent) in the data set “in vivo [4]” came out at 8%.
For the compound `Cc1ncoc1-c1nnc(SCCCN2CCc3ccc4oc(C(F)(F)F)nc4c3CC2)n1C`, the half-life (commonly the time in which the quantity being followed falls by half) in “in vivo [5]” was 0.6 h. For the same compound, the clearance in “in vivo [1]” amounted to 35 mL/min/kg. Moreover, the Kp at 1 h in the data set “in vivo [2]” amounted to 0.8. In the data set “in vivo [3]”, this compound registered a distribution volume (Vd) of 1.6 L/kg. The compound also showed a bioavailability in the data set “in vivo [4]” of 63%.
On to `Cc1ccc2c(-c3nnc(SCCCN4CCc5ccc6oc(C)nc6c5CC4)n3C)cccc2n1`, for which the half-life in the data set “in vivo [5]” is 1.7 h. This compound also showed a clearance in “in vivo [1]” of 48 mL/min/kg. In “in vivo [2]”, this compound showed a concentration ratio (Kp) at 1 h of 2.5. For the same compound, the bioavailability in “in vivo [4]” came out at 15%.
In turn, `CCc1nc2c3c(ccc2o1)CCN(CCCSc1nnc(-c2ocnc2C)n1C)CC3` showed a half-life in “in vivo [5]” of 1.9 h. Besides, the clearance in the data set “in vivo [1]” was found to be 5 mL/min/kg. The compound further yielded a Kp at 1 h in the data set “in vivo [2]” of 0.1. In “in vivo [3]”, this compound gave a volume of distribution (Vd) of 0.61 L/kg. Besides, the bioavailability in the data set “in vivo [4]” came to 73%.
The like results for `Cc1ncoc1-c1nnc(SCCCN2CCc3ccc4oc(C(C)(F)F)nc4c3CC2)n1C` were, in that order, 1.2 h, 9 mL/min/kg, 0.2, 0.8 L/kg and 54%.
